Data taken from patent publication US6908745B2, “Gamma sterilizable culture medium for the identification of yeasts and fungi” (Biotest AG, priority 2001, dated 2005).

Tested on: bacteria
Test: Antibacterial effect of antibiotics after γ-radiation
Settings: γ-radiation with 25 kGray
Protocol: In the pharmaceuticals industry are sought γ-sterilized media for use in clean room areas and isolators. These clean room areas must be monitored for microbial contamination, and the product (that is, the microbiological nutrient medium) itself, with which this monitoring is carried out, should not introduce any contamination, but be sterile. The microbiological media are not completely sterile after autoclaving and filling into, for example, Petri dishes or other agar carriers, but have contamination rates in the order of magnitude of 0.1 to approx. 1%. Only as a result of an additional γ-sterilization (or β-sterilization) with high-energy radiation are killed the residual existing contaminations and a sterile product is obtained. However, many antibiotics are destroyed as a result of the γ-sterilization, so that afterward in selective media for yeasts and fungi whose selectivity is based on the addition of antibiotics, this selectivity no longer exists.

Compound | antibacterial effect after γ-radiation
O=C(N[C@H](CO)[C@H](O)c1ccc([N+](=O)[O-])cc1)C(Cl)Cl [chloramphenicol] | completely destroyed
penicillin | essentially reduced
